In patent publication US12544372B2, “Methods of treating rheumatoid arthritis, chronic spontaneous urticaria, and systemic lupus erythematosis using an inhibitor of Bruton's tyrosine kinase” (Genentech, Inc., priority 2019, dated 2026):

System: patients with refractory chronic spontaneous urticaria
Test: Phase II CSU study (Cohorts 1 and 2): UAS7, weekly itch, weekly hives
Assay type: in vivo, human
Description: A Phase II, Multicenter, Randomized, Double-Blind, Placebo-Controlled Pilot and Dose-Ranging Study of Fenebrutinib in Patients with Refractory Chronic Spontaneous Urticaria (CSU)
This study was designed to evaluate the efficacy and safety of fenebrutinib compared with placebo as add-on therapy for the treatment of adult patients 18-75 years old who have been diagnosed with CSU and who remain symptomatic despite treatment with H1 antihistamines. Specific objectives and corresponding endpoints for the study are outlined below.
This pilot and dose-ranging study is a multicenter, randomized, double-blind, placebo-controlled, parallel-group study of the efficacy and safety of fenebrutinib as add-on therapy for the treatment of adult patients 18-75 years old who have been diagnosed with CSU and who remain symptomatic despite treatment with H1 antihistamines (including doses up to 4 times the approved dose per local treatment guidelines). The study consists of two cohorts. Cohort 1 enrolled 41 patients across multiple sites. After screening, eligible patients were randomly allocated in a ˜2:1 ratio to receive fenebrutinib 200 mg orally (PO) twice daily (BID) (n=28) or matching placebo (n=13) for 8 weeks and maintain stable doses of standard-of-care H1 antihistamine therapy throughout the study. A dose-ranging cohort, Cohort 2, enrolled approximately 120 patients randomly allocated in a 1:1:1:1 ratio received 50 mg PO daily (QD), 150 mg PO QD, 200 mg PO BID of GDC-0853, or placebo, respectively, for 8 weeks while maintaining stable doses of standard-of-care H1 antihistamine therapy throughout the study.
Both cohorts consist of three study periods over 14 weeks: (i) a screening period (Day −14 to Day −1), (ii) a treatment period [Day 1 to Day 57 (Week 0 to Week 8)], and (iii) a follow-up period [Day 57 to Day 85 (Week 8 to Week 12)].
The primary efficacy endpoint was measured at Week 8 (Day 57). Patients must have maintained stable doses of their pre-randomization H1 antihistamine therapy throughout the treatment period. After completion of the 8-week treatment period, all patients in both cohorts will enter a 4-week safety follow-up period in which no fenebrutinib treatment is given as patients maintain stable doses of their pre-randomization H1 antihistamine therapy.
The primary efficacy endpoint was the change in baseline in the UAS7 at Week 8 (Day 57). The change in the UAS7 (Table 9) is a summation of the average daily (a.m./p.m.) scores on the UAS (range: 0-6), which is a composite diary score with numeric severity intensity ratings on a scale of 0-3 (0=none to 3=intense/severe) for two domains: the intensity of the itch and the number of wheals/hives. The UAS is recorded by the patient twice daily (morning and evening) in the patient Urticaria Patient Daily eDiary.
Continuous longitudinal efficacy endpoints will be analyzed using a mixed model for repeated measures (MMRM) and descriptive statistics as appropriate. Additional model covariates will include baseline UAS7 and its interaction with visit. Missing data will be handled by the model under the missing-at-random assumption without need for imputation.
The secondary efficacy measurements are as described above in the “Study Objectives” section of this Example 2, and apply the UAS7 score and the weekly itch score measurement. Weekly itch scores are measured as part of the study patient's Urticaria Patient Daily eDiary.

[1] = Cohort 1, 200 mg BID vs placebo

## C[C@H]1CN(C2COC2)CCN1c1ccc(Nc2cc(-c3ccnc(N4CCn5c(cc6c5CC(C)(C)C6)C4=O)c3CO)cn(C)c2=O)nc1 [fenebrutinib, (S)-2-(3′-(hydroxymethyl)-1-methyl-5-((5-(2-methyl-4-(oxetan-3-yl)piperazin-1-yl)pyridin-2-yl)amino)-6-oxo-1,6-dihydro-[3,4′-bipyridin]-2′-yl)-7,7-dimethyl-2,3,4,6,7,8-hexahydro-1H-cyclopenta[4,5]pyrrolo[1,2-a]pyrazin-1-one]
Cohort 1, 200 mg BID
  UAS7 - Change from BL to Week 4, Mean (SD): −21.1 (11.3)
  UAS7 - Change from BL to Week 4, Median: −22.5
  UAS7 - Change from BL to Week 8, Mean (SD): −21.6 (11.8)
  UAS7 - Change from BL to Week 8, Median: −23.0
  Weekly Hive Score - Change from BL to Week 4, Mean (SD): −11.6 (6.8)
  Weekly Hive Score - Change from BL to Week 4, Median: −14.0
  Weekly Hive Score - Change from BL to Week 8, Mean (SD): −12.2 (7.1)
  Weekly Hive Score - Change from BL to Week 8, Median: −14.0
  Weekly Itch Severity - Change from BL to Week 4, Mean (SD): −9.5 (5.4)
  Weekly Itch Severity - Change from BL to Week 4, Median: −9.0
  Weekly Itch Severity - Change from BL to Week 8, Mean (SD): −9.4 (5.6)
  Weekly Itch Severity - Change from BL to Week 8, Median: −9.0
[1]
  UAS7 - Change from BL to Week 4, Treatment difference in LS means, 90% CI: −12.5 (−18.9, −6.1) 0.002
  UAS7 - Change from BL to Week 8, Treatment difference in LS means, 90% CI: −4.3 (−11.3, 2.7) 0.305
  Weekly Hive Score - Change from BL to Week 4, Treatment difference in LS means, 90% CI: −7.5 (−11.2, −3.7) 0.002
  Weekly Hive Score - Change from BL to Week 8, Treatment difference in LS means, 90% CI: −2.8 (−6.9, 1.4) 0.269
  Weekly Itch Severity - Change from BL to Week 4, Treatment difference in LS means, 90% CI: −5.5 (−8.5, −2.6) 0.003
  Weekly Itch Severity - Change from BL to Week 8, Treatment difference in LS means, 90% CI: −1.3 (−4.5, 1.8) 0.479
Cohort 1, 200 mg BID, Week 4
  patients well-controlled (UAS7≤6): 64%
  well-controlled patients, % treatment difference over placebo: 48.6%
Cohort 1, 200 mg BID, Week 8
  patients well-controlled (UAS7≤6): 65%
  well-controlled patients, % treatment difference over placebo: 31.9%
Cohort 1 and Cohort 2, each treatment group, all comers, Week 8
  weekly itch scores (treatment difference in LS means): reduced weekly itch scores in each group
